# Experimental data published in patent US12480137B2, “Plants having increased tolerance to herbicides” (BASF SE, priority 2014, dated 2025).
# How the values were obtained:
# Assay type in all cases: in vivo, Arabidopsis thaliana
# [1] = test system: Cesa3_S1040L, fpx1-1 mutant line; experiment: Greenhouse phytotox, pre-emergent treatment
# Experimental: (§1) Additionally, M2 or M3 Arabidopsis plants are tested for improved tolerance to cellulose biosynthesis-inhibiting herbicides in greenhouse studies (e. g. with the following cellulose biosynthesis-inhibiting herbicides: 6-cyclopentyl-N4-(2,3,4,5,6-pentafluorophenyl)-1,3,5-triazine-2,4-diamine; 6-(1-fluoro-1-methyl-ethyl)-N4-(2,3,4,5,6-pentafluorophenyl)-1,3,5-triazine-2,4-diamine; N4-(4-chloro-3,5,6-trifluoro-2-pyridyl)-6-(1-fluoro-1-methyl-ethyl)-1,3,5-triazine-2,4-diamine; 6-(2,6-difluorophenyl)-N4-(2,3,5,6-tetrafluorophenyl)-1,3,5-triazine-2,4-diamine; N4-(4-bromo-2,3,5,6-tetrafluoro-phenyl)-6-(1-fluoro-1-methyl-ethyl)-1,3,5-triazine-2,4-diamine.
# [2] = test system: Cesa1_P1010L, fpx2-2 mutant line; experiment: Greenhouse phytotox, pre-emergent treatment
# Experimental: as §1
# [3] = test system: Cesa1_G1009D, fpx2-3 mutant line; experiment: Greenhouse phytotox, pre-emergent treatment
# Experimental: as §1
# [4] = test system: Cesa1_G1013R, fpx2-1 mutant line; experiment: Greenhouse phytotox, pre-emergent treatment
# Experimental: as §1
# [5] = test system: Cesa3_S983F, fpx1-3 mutant line; experiment: Greenhouse phytotox, pre-emergent treatment
# Experimental: as §1
# A. thaliana WT L. erecta [6] = experiment: Greenhouse phytotox, pre-emergent treatment
# Experimental: as §1
# [7] = test system: Cesa3_S1037F, fpx1-2 mutant line; experiment: Greenhouse phytotox, pre-emergent treatment
# Experimental: as §1
# [8] = test system: transgenic Arabidopsis plants, construct AtCESA1 wt; experiment: Growth inhibition of transgenic Arabidopsis in 48-well plates, tolerance factor from IC50; conditions: SEQ ID NO 1, growth inhibition seven to ten days after seeding
# Description: (§2) For transformation of Arabidopsis thaliana, wildtype or mutated cellulose synthase sequences based on one of the following sequences SEQ ID NO: 72, 73, 74, 75, 76, or 77, are cloned with standard cloning techniques as described in Sambrook et al. (Molecular cloning (2001) Cold Spring Harbor Laboratory Press) in a binary vector containing resistance marker gene cassette (AHAS) and mutated cellulose synthase sequence (marked as GOI) in between ubiquitin promoter (PcUbi) and nopaline synthase terminator (NOS) sequence. Binary plasmids are introduced to Agrobacterium tumefaciens for plant transformation. Arabidopsis thaliana are transformed with wildtype or mutated cellulose synthase sequences by floral dip method as decribed by McElver and Singh (WO 2008/124495). Transgenic Arabidopsis plants are subjected to TaqMan analysis for analysis of the number of integration loci.
# (§3) Transgenic Arabidopsis thaliana plants are assayed for improved tolerance to azine herbicides like e. g. 6-cyclopentyl-N4-(2,3,4,5,6-pentafluorophenyl)-1,3,5-triazine-2,4-diamine in 48-well plates. Therefore, T2 seeds are surface sterilized by stirring for 5 min in ethanol+water (70+30 by volume), rinsing one time with ethanol+water (70+30 by volume) and two times with sterile, deionized water. The seeds are resuspended in 0.1% agar dissolved in water (w/v) Four to five seeds per well are plated on solid nutrient medium consisting of half-strength murashige skoog nutrient solution, pH 5.8 (Murashige and Skoog (1962) Physiologia Plantarum 15: 473-497). Compounds are dissolved in dimethylsulfoxid (DMSO) and added to the medium prior solidification (final DMSO concentration 0.1%). Multi well plates are incubated in a growth chamber at 22° C., 75% relative humidity and 110 μmol Phot*m^−2*s^−1 with 14:10 h light:dark photoperiod. Growth inhibition is evaluated seven to ten days after seeding in comparison to wild type plants. Tolerance factors are calculated based on IC50 values of growth inhibition of transformed versus non-transformed Arabidopsis plants.
# [9] = test system: transgenic Arabidopsis plants, construct AtCESA1_G1013R; experiment: as above; conditions: SEQ ID NO 1, substitution G1013R, growth inhibition seven to ten days after seeding
# Description: as §2, §3
# [10] = test system: transgenic Arabidopsis plants, construct AtCESA3_wt; experiment: as above; conditions: SEQ ID NO 3, growth inhibition seven to ten days after seeding
# Description: as §2, §3
# [11] = test system: transgenic Arabidopsis plants, construct AtCESA3_S1037F; experiment: as above; conditions: SEQ ID NO 3, substitution S1037F, growth inhibition seven to ten days after seeding
# Description: as §2, §3
# [12] = test system: transgenic Arabidopsis plants, construct AtCESA3_S1040L; experiment: as above; conditions: SEQ ID NO 3, substitution S1040L, growth inhibition seven to ten days after seeding
# Description: as §2, §3
# [13] = test system: Cesa3_S1040L, fpx1-1 mutant line; experiment: Greenhouse phytotox, post-emergent treatment 6 weeks after sowing
# Experimental: as §1
# [14] = test system: Cesa1_P1010L, fpx2-2 mutant line; experiment: as above
# Experimental: as §1
# [15] = test system: Cesa1_G1009D, fpx2-3 mutant line; experiment: as above
# Experimental: as §1
# [16] = test system: Cesa1_G1013R, fpx2-1 mutant line; experiment: as above
# Experimental: as §1
# [17] = test system: Cesa3_S983F, fpx1-3 mutant line; experiment: as above
# Experimental: as §1
# A. thaliana WT L. erecta [18] = experiment: as above
# Experimental: as §1
# [19] = test system: Cesa3_S1037F, fpx1-2 mutant line; experiment: as above
# Experimental: as §1
smiles,measurement,setting,value
"Cc1cccc(-n2nc(C(N)=O)nc2-c2ccccc2)c1 [1-(m-tolyl)-5-phenyl-1,2,4-triazole-3-carboxamide, reference compound]",Phytotox value on a scale from 0-100 (100 is 100% damage),[1]; 3.91 g ai/ha,38
same,Phytotox value on a scale from 0-100 (100 is 100% damage),[1]; 15.63 g ai/ha,30
same,Phytotox value on a scale from 0-100 (100 is 100% damage),[1]; 62.5 g ai/ha,0
same,Phytotox value on a scale from 0-100 (100 is 100% damage),[1]; 250 g ai/ha,25
same,Phytotox value on a scale from 0-100 (100 is 100% damage),[2]; 3.91 g ai/ha,0
same,Phytotox value on a scale from 0-100 (100 is 100% damage),[2]; 15.63 g ai/ha,20
same,Phytotox value on a scale from 0-100 (100 is 100% damage),[2]; 62.5 g ai/ha,13
same,Phytotox value on a scale from 0-100 (100 is 100% damage),[2]; 250 g ai/ha,35
same,Phytotox value on a scale from 0-100 (100 is 100% damage),[3]; 3.91 g ai/ha,0
same,Phytotox value on a scale from 0-100 (100 is 100% damage),[3]; 15.63 g ai/ha,18
same,Phytotox value on a scale from 0-100 (100 is 100% damage),[3]; 62.5 g ai/ha,30
same,Phytotox value on a scale from 0-100 (100 is 100% damage),[3]; 250 g ai/ha,45
same,Phytotox value on a scale from 0-100 (100 is 100% damage),[4]; 3.91 g ai/ha,5
same,Phytotox value on a scale from 0-100 (100 is 100% damage),[4]; 15.63 g ai/ha,15
same,Phytotox value on a scale from 0-100 (100 is 100% damage),[4]; 62.5 g ai/ha,20
same,Phytotox value on a scale from 0-100 (100 is 100% damage),[4]; 250 g ai/ha,15
same,Phytotox value on a scale from 0-100 (100 is 100% damage),[5]; 3.91 g ai/ha,0
same,Phytotox value on a scale from 0-100 (100 is 100% damage),[5]; 15.63 g ai/ha,8
same,Phytotox value on a scale from 0-100 (100 is 100% damage),[5]; 62.5 g ai/ha,5
same,Phytotox value on a scale from 0-100 (100 is 100% damage),[5]; 250 g ai/ha,30
same,Phytotox value on a scale from 0-100 (100 is 100% damage),A. thaliana WT L. erecta [6]; 3.91 g ai/ha,0
same,Phytotox value on a scale from 0-100 (100 is 100% damage),A. thaliana WT L. erecta [6]; 15.63 g ai/ha,63
same,Phytotox value on a scale from 0-100 (100 is 100% damage),A. thaliana WT L. erecta [6]; 62.5 g ai/ha,100
same,Phytotox value on a scale from 0-100 (100 is 100% damage),A. thaliana WT L. erecta [6]; 250 g ai/ha,100
same,Phytotox value on a scale from 0-100 (100 is 100% damage),[7]; 3.91 g ai/ha,0
same,Phytotox value on a scale from 0-100 (100 is 100% damage),[7]; 15.63 g ai/ha,30
same,Phytotox value on a scale from 0-100 (100 is 100% damage),[7]; 62.5 g ai/ha,23
same,Phytotox value on a scale from 0-100 (100 is 100% damage),[7]; 250 g ai/ha,68
same,Relative tolerance rate (non-transgenic = 1.0),[8],3
same,Relative tolerance rate (non-transgenic = 1.0),[9],33
same,Relative tolerance rate (non-transgenic = 1.0),[10],4
same,Relative tolerance rate (non-transgenic = 1.0),[11],1333
same,Relative tolerance rate (non-transgenic = 1.0),[12],2
same,Phytotox value on a scale from 0-100 (100 is 100% damage),[13]; 62.5 g ai/ha,0
same,Phytotox value on a scale from 0-100 (100 is 100% damage),[13]; 125 g ai/ha,23
same,Phytotox value on a scale from 0-100 (100 is 100% damage),[13]; 250 g ai/ha,55
same,Phytotox value on a scale from 0-100 (100 is 100% damage),[14]; 62.5 g ai/ha,15
same,Phytotox value on a scale from 0-100 (100 is 100% damage),[14]; 125 g ai/ha,15
same,Phytotox value on a scale from 0-100 (100 is 100% damage),[14]; 250 g ai/ha,48
same,Phytotox value on a scale from 0-100 (100 is 100% damage),[15]; 62.5 g ai/ha,23
same,Phytotox value on a scale from 0-100 (100 is 100% damage),[15]; 125 g ai/ha,33
same,Phytotox value on a scale from 0-100 (100 is 100% damage),[15]; 250 g ai/ha,45
same,Phytotox value on a scale from 0-100 (100 is 100% damage),[16]; 62.5 g ai/ha,23
same,Phytotox value on a scale from 0-100 (100 is 100% damage),[16]; 125 g ai/ha,33
same,Phytotox value on a scale from 0-100 (100 is 100% damage),[16]; 250 g ai/ha,40
same,Phytotox value on a scale from 0-100 (100 is 100% damage),[17]; 62.5 g ai/ha,28
same,Phytotox value on a scale from 0-100 (100 is 100% damage),[17]; 125 g ai/ha,23
same,Phytotox value on a scale from 0-100 (100 is 100% damage),[17]; 250 g ai/ha,53
same,Phytotox value on a scale from 0-100 (100 is 100% damage),A. thaliana WT L. erecta [18]; 62.5 g ai/ha,78
same,Phytotox value on a scale from 0-100 (100 is 100% damage),A. thaliana WT L. erecta [18]; 125 g ai/ha,83
same,Phytotox value on a scale from 0-100 (100 is 100% damage),A. thaliana WT L. erecta [18]; 250 g ai/ha,95
same,Phytotox value on a scale from 0-100 (100 is 100% damage),[19]; 62.5 g ai/ha,30
same,Phytotox value on a scale from 0-100 (100 is 100% damage),[19]; 125 g ai/ha,50
same,Phytotox value on a scale from 0-100 (100 is 100% damage),[19]; 250 g ai/ha,68
